Molecular target: GzmB (Homo sapiens, UniProt P10144)
Assay: Inhibition of fibronectin cleavage by GzmB
Format: biochemical
Conditions: 20 nM granzyme B, Hilyte Fluor 488 labeled fibronectin, 30° C.
Description: Black, 96 well high-binding assay plates (Griener Bio-one) were treated overnight at 4° C. with 40 uL of 8 ug/mL Hilyte Fluor 488 labeled Fibronectin (Cytoskeleton, Inc). After fibronectin coating, plates were washed 3 times in buffer (20 mM Tris-HCl, pH 7.4, 20 mM NaCl) then once with granzyme B assay buffer (50 mM HEPES, pH 7.5, 0.1% CHAPS). After washing, 50 uL of granzyme B assay buffer was added to each fibronectin-coated well. In a separate non-binding 96 well assay plate 5 uL of 20× inhibitor serial dilution stocks were added to 45 uL of 2.22×GzmB mix to establish inhibition (enzyme/inhibitor mixes were all prepared in granzyme B assay buffer and were incubated first at room temperature for 20 minutes, then at 30° C. for another 10 minutes). After incubation, 50 uL of this 2× enzyme/inhibitor mix was added to the corresponding coated well to initiate fibronectin cleavage (20 nM final granzyme B concentration, 8-point inhibitor dilution series starting at 50 uM). The assay was conducted at 30° C. in the TECAN plate reader (TECAN INFINITE® M1000 Pro), which was programmed to monitor the kinetic fluorescence polarization signal (filter set Ex/Em 470 nm/527 nm) with readings taken every minute, for 1 hour. Proteolytic activity was evaluated as the rate of fluorescence enhancement in the parallel emission over the linear range of the reaction. % Inhibition values were calculated from assay controls and the resulting date is shown in Table 2.

GzmB, sequence (P10144 21-247): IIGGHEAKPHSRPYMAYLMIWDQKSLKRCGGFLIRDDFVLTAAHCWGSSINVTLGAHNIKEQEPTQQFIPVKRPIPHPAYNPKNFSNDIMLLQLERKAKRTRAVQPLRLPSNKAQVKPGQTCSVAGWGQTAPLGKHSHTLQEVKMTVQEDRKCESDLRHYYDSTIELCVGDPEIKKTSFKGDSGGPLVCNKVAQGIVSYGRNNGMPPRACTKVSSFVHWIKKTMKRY

- inhibition at 0.62 µM (0.62 uM inhibitor, read-out: Percent Inhibition at Inhibitor Concentration 0.62 uM): 60%
- inhibition at 5.56 µM (5.56 uM inhibitor, read-out: Percent Inhibition at Inhibitor Concentration 5.56 uM): 87%
- inhibition at 50 µM (50 uM inhibitor, read-out: Percent Inhibition at Inhibitor Concentration 50 uM): 95%
SMILES: CC[C@H](C)[C@H](NC(=O)CCC(=O)O)C(=O)NCC(=O)N1c2ccccc2C[C@H]1C(=O)NC(C=O)CC(=O)O (stereo in doubt) [Compound C1, (S)-3-{[1-{2-[(2S,3S)-2-(3-carboxypropanamido)-3-methylpentanamido]acetyl}-2,3-dihydro-1H-indol-2-yl]formamido}-4-oxobutanoic acid]

Reference: patent US9458192B1, “Covalent granzyme B inhibitors” (viDA Therapeutics Inc., priority 2014, dated 2016)
